In patent US10668122B2, “Extract of Toona sinensis from supercritical fluid extraction for treating diabetes and metabolic disease, the preparation method and the use thereof” (Metal Industries Research & Development Centre, priority 2009, dated 2020):
Marks after values point to notes of the source that are not given here.

Assays:
[1] = system: type 2 diabetic mouse model; test: Anti-diabetic effect in vivo, type 2 diabetic mouse model (high-fat diet plus STZ injection); set-up: species or system C57BL/6J mice; settings: DM + rosiglitazone 150 μg/kg/day, mean ± SD
Method: Eight-week-old male C57BL/6J mice were obtained from BioLASCO Technology (Charles River Taiwan Ltd.). All of the mice received standard animal care under supervision of the Institutional Animal Care and Use Committee of Kaohsiung Medical University, Taiwan. The mice were caged in an air-conditioned animal facility at 23° C. on a 12-h light/dark cycle and were maintained with free access to water and food. Animals were fed either a normal chow diet consisting (as a percentage of total kcal) of 11% fat, 65% carbohydrate, and 24% protein (Maintenance diet 1320, Altromin Spezialfutter GmbH & Co. KG, Germany) or a high-fat diet consisting of 45% fat, 35% carbohydrate, and 20% protein (D12451, Research Diets, Inc., New Brunswick, N.J., USA). After two weeks on either diet, mice were divided into four groups: (i) control (n=7); (ii) high-fat-diet mice with STZ injection (DM; n=5); (iii) high-fat-diet mice with STZ injection plus TS-SCF treatment (DM+TS-SCF; n=6); and (iv) high-fat-diet mice with STZ injection plus rosiglitazone treatment (DM+Rosig; n=4). The mice in groups ii-iv were injected with STZ (45 mg/kg), and both STZ-injected and non-injected animals were kept on their original diets (chow or high-fat) for the duration of the study. TS-SCF (150 mg/kg/day) and rosiglitazone (150 μg/kg/day) treatments via gastric gavage were begun two days after the STZ injection.
Throughout the experiment, body weight and blood glucose from the tail tip were monitored weekly. Blood glucose was detected by the ACCU-CHEK blood glucose meter (Roche Diagnostics, Taipei, Taiwan). Animals were sacrificed after eight weeks of STZ injection and were euthanized by intraperitoneal injection with the anesthetic Zoletil (10 mg/kg) (Virbac, Carros, France). Blood samples were collected from the heart at the time of sacrifice for the measurement of biochemistry data using a Roche Cobas Integra 400 Chemistry Analyzer (Roche Diagnostics, Taipei, Taiwan).
Insulin from plasma were detected by ELISA kits (Crystal Chem, Inc. Downers Grove, USA). The homeostasis model assessment of insulin resistance (HOMA-IR) was calculated using the following formula: fasting blood glucose (mg/dL)×fasting insulin (μU/mL)/405.

[2] = system: 3T3-L1 adipocytes; test: In vitro model for anti-diabetic effect: 24-hour glucose consumption from culture medium of 3T3-L1 adipocytes; assay type: cell-based; settings: starting glucose 300 mg/dL
Method: Adipose tissue is one of the major sites of postprandial glucose uptake (Watson et al., 2007). To speed up the screening of novel anti-diabetic candidate materials from natural products, an in vitro model was established by comparing the 24-hour glucose consumption from the culture medium of 3T3-L1 adipocytes.
The same amount (5×10^5 cells) of 3T3-L1 preadipocytes (BCRC #60159; Bioresource Collection and Research Center, Taiwan) was seeded and cultured in normal glucose (100 mg/dL) DMEM supplemented with 10% FBS, 100 U/mL of penicillin, and 100 μg/mL of streptomycin in a humidified atmosphere of 95% air and 5% CO2 at 37° C. When the cell density reached 100% confluence, 3T3-L1 preadipocytes were induced to differentiate by treating the culture with 450 mg/dL D-glucose, 0.32 μM insulin, 0.5 mM 3-isobutyl-1-methylxanthine and 1 μM dexamethasone for two days. Then, the culture medium of the differentiated adipocytes was changed to DMEM containing 300 mg/dL D-glucose with or without the administration of TSL extracts. After 24 hours, the anti-diabetic activity was determined by measuring the medium glucose concentration using a Roche Cobas Integra 400 Chemistry Analyzer (Roche Diagnostics, Taipei, Taiwan). The coefficient of variation (CV) of the analyzer was 0.62-0.92% within-run and 1.1-1.2% between days. To confirm whether the in vitro model was sufficient to measure the glucose-lowering effect, insulin and rosiglitazone were used as positive controls.
The methods of in vitro model for determination of anti-diabetic effect are the same as the contents described in EXAMPLE 3. To obtain the high to mid-high polar components of TSL, three different extraction methods were used to produce the following extracts, which were previously reported (Liao et al., 2007; Hsieh et al., 2005; Yang et al., 2003). TSLs were (i) extracted by reverse-osmosis of water (1:4 w/v) by boiling for 30 min and then cooling down without further boiling for two hours at room temperature (Liao et al., 2007); (ii) extracted by soaking in 100° C. boiled water (1:10 w/v) three times, each time for 30 min (Hsieh et al., 2005); and (iii) extracted by boiling in 50% v/v alcohol/water for three hours (Yang et al., 2003). Next, the leaves were removed and the remaining liquids were filtered through filter paper (Advantec, Tokyo, Japan). Afterward, the filtrated solutions were concentrated using an evaporator (rotary vacuum evaporator, vv2000; Heidolph, Schwabach, Germany) under reduced pressure and three crude extracts were obtained, which were named TS-WB (i), TS-WS (ii), and TS-E (iii); the yield of each extract was 6.03%, 5.13%, and 8.36%, respectively.

[3] = insulin 3.2×10^−7 to 3.2×10^−5 M

| Creatinine ([1]; plasma) | Molecule | Fasting glucose ([1]; at sacrifice eight weeks after STZ) | Body weight gain [1] [g] | HDL-C [1] [mg/dL] | HOMA-IR [1] | Insulin (fasting plasma) [1] [ng/mL] | LDL-C [1] [mg/dL] | T-CHO (total cholesterol) [1] [mg/dL] | Triglycerol (plasma) [1] | ALT ([1]; plasma) [U/L] | decrease of the glucose concentration in the media ([2]; rosiglitazone 12.5 to 50 μg/mL) [mg/dL] | percentage of glucose consumption ([2]; rosiglitazone 12.5 to 50 μg/mL) | decrease of the glucose concentration in the media [2, 3] [mg/dL] | percentage of glucose consumption [2, 3] |
| --- | --- | --- | --- | --- | --- | --- | --- | --- | --- | --- | --- | --- | --- | --- |
| 0.54 ± 0.18^e mg/dL | CN(CCOc1ccc(CC2SC(=O)NC2=O)cc1)c1ccccn1 (centres unmarked) [rosiglitazone] | 205.00 ± 84.87^b mg/dL | 8.10 ± 1.95 | 126.03 ± 32.17 | 14.29 ± 4.60^b | 0.98 ± 0.77 | 9.81 ± 8.29 | 137.65 ± 32.62 | 64.94 ± 4.82^d mg/dL | 62.00 ± 27.00 | 50 to 80 | 16-27% |  |  |
|  | insulin |  |  |  |  |  |  |  |  |  |  |  | 46 to 57 | 15-18% |
